Data as given in ChEMBL document CHEMBL3272303.
Calls of active or inactive are those of the source. The calls are words filed in the database; no cut-off is given here.

Columns and labels:
[1] = biological target: Beta-1 adrenergic receptor (Cavia porcellus) (UniProt B0FL73); experiment: Antagonist activity at beta 1 adrenergic receptor in guinea pig right atria assessed as inhibition of trimetoquinol-induced chronotropic response at 10^-4 M preincubated for 30 mins followed by trimetoquinol addition measured within 45 mins relative to control
Chain of Beta-1 adrenergic receptor (Cavia porcellus) (B0FL73 1-467): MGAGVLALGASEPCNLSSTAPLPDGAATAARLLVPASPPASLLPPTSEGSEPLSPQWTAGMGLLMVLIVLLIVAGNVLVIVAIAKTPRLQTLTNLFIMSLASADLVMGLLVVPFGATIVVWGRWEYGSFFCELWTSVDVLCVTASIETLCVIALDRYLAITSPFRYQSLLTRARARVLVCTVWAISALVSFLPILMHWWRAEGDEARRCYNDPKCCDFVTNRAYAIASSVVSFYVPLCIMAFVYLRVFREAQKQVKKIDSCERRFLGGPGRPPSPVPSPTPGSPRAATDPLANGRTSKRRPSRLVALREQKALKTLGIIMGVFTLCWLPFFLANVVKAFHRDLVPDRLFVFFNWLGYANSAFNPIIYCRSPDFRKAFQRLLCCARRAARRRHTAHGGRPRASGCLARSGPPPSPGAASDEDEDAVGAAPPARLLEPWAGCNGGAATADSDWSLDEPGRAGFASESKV

[2] = biological target: Beta-1 adrenergic receptor (Cavia porcellus) (UniProt B0FL73); experiment: Competitive antagonist activity at beta 1 adrenergic receptor in guinea pig right atria assessed as inhibition of trimetoquinol-induced chronotropic response at 10^-6 to 10^-5 M preincubated for 30 mins followed by trimetoquinol addition measured within 1 hr
[3] = biological target: Beta-1 adrenergic receptor (Cavia porcellus) (UniProt B0FL73); experiment: Antagonist activity at beta 1 adrenergic receptor in guinea pig right atria assessed as inhibition of 10^-3 M trimetoquinol-induced chronotropic response at 10^-4 M preincubated for 30 mins followed by trimetoquinol addition measured within 1 hr
[4] = biological target: Beta-2 adrenergic receptor (Rattus norvegicus) (UniProt P10608); experiment: Agonist activity at beta 2 adrenergic receptor in Sprague-Dawley rat adipocytes assessed as lipolysis at 10^-9 to 10^-4 M after 1 hr; format: cell-based
Chain of Beta-2 adrenergic receptor (Rattus norvegicus) (P10608 whole entry, looked up): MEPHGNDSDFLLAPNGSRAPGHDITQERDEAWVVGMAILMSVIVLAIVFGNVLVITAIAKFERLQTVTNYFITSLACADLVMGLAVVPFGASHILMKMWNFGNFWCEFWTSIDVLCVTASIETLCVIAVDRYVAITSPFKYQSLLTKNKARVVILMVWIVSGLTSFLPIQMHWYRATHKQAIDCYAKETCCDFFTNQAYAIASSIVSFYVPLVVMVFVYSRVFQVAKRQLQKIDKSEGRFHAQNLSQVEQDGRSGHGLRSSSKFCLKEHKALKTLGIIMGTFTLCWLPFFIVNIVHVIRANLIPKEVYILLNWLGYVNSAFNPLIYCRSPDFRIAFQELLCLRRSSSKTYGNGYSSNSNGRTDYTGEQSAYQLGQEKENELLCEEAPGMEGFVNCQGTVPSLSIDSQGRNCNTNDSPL

[5] = biological target: Beta-2 adrenergic receptor (Cavia porcellus) (UniProt Q8K4Z4); experiment: Agonist activity at beta 2 adrenergic receptor in guinea pig trachea assessed as tracheal relaxation at 10^-9 to 10^-4 M
Chain of Beta-2 adrenergic receptor (Cavia porcellus) (Q8K4Z4 whole entry, looked up): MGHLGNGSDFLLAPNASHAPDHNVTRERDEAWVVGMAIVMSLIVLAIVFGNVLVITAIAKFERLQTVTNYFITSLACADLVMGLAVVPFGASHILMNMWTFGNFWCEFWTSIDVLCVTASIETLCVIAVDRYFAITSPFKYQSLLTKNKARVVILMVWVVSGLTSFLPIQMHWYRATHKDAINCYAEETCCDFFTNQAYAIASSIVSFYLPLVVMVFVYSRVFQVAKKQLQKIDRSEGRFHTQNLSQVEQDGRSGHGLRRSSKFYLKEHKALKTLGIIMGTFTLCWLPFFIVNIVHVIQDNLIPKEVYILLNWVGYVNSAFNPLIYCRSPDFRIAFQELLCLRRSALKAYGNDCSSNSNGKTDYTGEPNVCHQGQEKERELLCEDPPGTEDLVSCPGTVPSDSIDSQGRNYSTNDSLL

[6] = biological target: Beta-2 adrenergic receptor (Cavia porcellus) (UniProt Q8K4Z4); experiment: Antagonist activity at beta 2 adrenergic receptor in guinea pig trachea assessed as inhibition of trimetoquinol-induced tracheal relaxation at 10^-4 M preincubated for 30 mins followed by trimetoquinol addition measured within 1 hr
[7] = biological target: Beta-1 adrenergic receptor (Cavia porcellus) (UniProt B0FL73); experiment: Antagonist activity at beta 1 adrenergic receptor in guinea pig right atria assessed as inhibition of 10^-3 M isoproterenol-induced chronotropic response at 10^-4 M
[8] = biological target: Beta-2 adrenergic receptor (Cavia porcellus) (UniProt Q8K4Z4); settings: Trachea
[9] = biological target: Beta-1 adrenergic receptor (Cavia porcellus) (UniProt B0FL73); experiment: Partial agonist activity at beta 1 adrenergic receptor in guinea pig right atria assessed as chronotropic response measured over 3 mins

SMILES	inhibition [1] [%]	inhibition [2]	inhibition [3]	Activity [4]	Activity [5]	inhibition [6]	inhibition [7]	pD2 [8]	Activity [9]
COc1cc(CC2(Cc3ccccc3)NCCc3cc(O)c(O)cc32)cc(OC)c1OC (configuration not stated)	< 10	Active	Active	inactive	inactive	inactive	Active		
COc1cc(C[C@@H]2NCCc3cc(O)c(O)cc32)cc(OC)c1OC								7	
COc1cc(CC2(C)NCCc3cc(O)c(O)cc32)cc(OC)c1OC (configuration not stated)				inactive	inactive	inactive			Active
